For 58 molecules, IC50 results are on record in ChEMBL document CHEMBL5050843, “Amide substituted thiazoles as protein secretion inhibitors” (2019).

Common to all, as to type: functional, cell-based
Assay [1] in a line: Inhibition of constitutively active VCAMss-Gluc secretion in human Flp-In-T-REx-293 cells measured by Gaussia luciferase reporter gene method.
Assay [2] can be described thus: Inhibition of TNF-alpha-FL-Gluc secretion in doxycyclin-induced human Flp-In-T-REx-293 cells measured by Gaussia luciferase reporter gene method. (In general: A reporter such as luciferase makes a cellular process visible.)
The nature of assay [3]: Inhibition of PD1ss-Gluc secretion in doxycyclin-induced human Flp-In-T-REx-293 cells measured by Gaussia luciferase reporter gene method.
Assay [4] is described as follows: Inhibition of PR1ss-Gluc secretion in doxycyclin-induced human Flp-In-T-REx-293 cells measured by Gaussia luciferase reporter gene method.
The nature of assay [5]: Inhibition of constitutively active PR1ss-Gluc secretion in human Flp-In-T-REx-293 cells measured by Gaussia luciferase reporter gene method.

Usually IC50 stands for the midpoint of a concentration-inhibition curve. In the case of `CC(C)(C)c1csc(NC(=O)c2ccc(Cl)s2)n1`, the figures for the IC50 in assay [1] and in assay [2] were 2 µM and 8 µM, respectively.
Regarding `CC(C)(C)c1nc(NC(=O)c2cc3c(s2)CCCC3)sc1C#N`, the 50% inhibitory concentration (IC50) in assay [1] and in assay [2] was over 80 µM each time.
For `CC(C)(C)Cc1csc(NC(=O)Cc2cn(Cc3ccccc3Cl)c3ccc(Cl)cc23)n1`, the IC50 is over 25 µM in assay [2], 6.18 µM in assay [3] and over 25 µM in assay [4].
As for `CC(C)(C)c1csc(NC(=O)c2ccc(-c3ccc(Cl)cc3Cl)s2)n1`, the figures for the IC50 in assay [1] and in assay [2] were 2.27 µM and 4.31 µM, respectively.
As for `CC(C)(C)c1csc(NC(=O)Cc2cn(Cc3ccccc3)c3cc(Cl)ncc23)n1`, the results for the IC50 in assay [2], in assay [3] and in assay [4] were 23.7 µM, 8.34 µM and 20.7 µM, respectively.
Take `C[C@@H](c1ccccc1Cl)n1cc(CC(=O)Nc2nc(C(C)(C)C)cs2)c2cc(Cl)ccc21`: the values for the half-inhibitory concentration (IC50) in assay [2], in assay [3] and in assay [4] were over 25 µM, 0.875 µM and over 25 µM, respectively.
Take `CC(C)(C)c1csc(NC(=O)Cc2cn(CC(=O)Nc3ccccc3O)c3ccc(Cl)cc23)n1`: the IC50 in assay [2] was found to be 17.7 µM; in assay [3], 10.4 µM; in assay [4], 19.1 µM.
Regarding `CC(C)n1cc(CC(=O)Nc2nc(C(C)(C)C)cs2)c2cc(Cl)ccc21`, the IC50 was 0.587 µM in assay [1], 4.4 µM in assay [3], over 25 µM in assay [5] and over 25 µM in assay [4].
For the molecule `CC(C)(C)c1csc(NC(=O)Cc2cn(Cc3nc4ccccc4o3)c3ccc(Cl)cc23)n1`, the results for the IC50 in assay [2], in assay [3] and in assay [4] were over 25 µM, 9.71 µM and over 25 µM, respectively.
In the case of `CC(C)(C)c1csc(NC(=O)c2csc3c2CCCC3)n1`, the IC50 in assay [1] worked out at 14 µM; in assay [2] it was 73 µM.
Take `COc1ccc2cc(C(=O)Nc3nc(C(C)(C)C)cs3)sc2c1`: the IC50 in assay [1] is 1.8 µM; in assay [2], over 80 µM.
As for `CNC(=O)c1ccc2sc(C(=O)Nc3nc(C(C)(C)C)cs3)cc2c1`, the IC50 was determined as 8.8 µM in assay [3] and 7.44 µM in assay [4].
The corresponding values for `CC(C)(C)c1csc(NC(=O)c2cn(Cc3ccccc3)c3ccccc23)n1` are 7.05 µM and over 25 µM.
With `CCCc1csc(NC(=O)c2cc3c(s2)CCCC3)n1`, the IC50 was 2.6 µM in assay [1] and over 80 µM in assay [2].
For the molecule `CC(C)(C)c1csc(NC(=O)Cc2cn(Cc3ncco3)c3ccc(Cl)cc23)n1`, the values for the IC50 in assay [2], in assay [3] and in assay [4] were over 25 µM, 23.5 µM and over 25 µM, respectively.
`CC(C)c1csc(NC(=O)c2cc3c(s2)CCCC3)n1`: the IC50 in assay [1] is 1.2 µM; in assay [2], over 80 µM.
As for `CN[C@@H](Cc1cn(Cc2ccc(F)cc2)c2ccccc12)C(=O)Nc1nc(C(C)(C)C)cs1`, the IC50 in assay [3] and in assay [4] was over 25 µM in each case.
On to `CC(C)(C)c1csc(NC(=O)Cc2cn(C3CCCCC3)c3ccc(Cl)cc23)n1`, for which the figures for the IC50 in assay [2], in assay [3] and in assay [4] were over 25 µM, 3.36 µM and over 25 µM, respectively.
With `CC(C)(C)c1csc(NC(=O)c2cc(Br)c(Br)s2)n1`, the results for the IC50 in assay [1] and in assay [2] were 3.8 µM and 26 µM, respectively.
Consider `CC(C)(C)c1csc(NC(=O)Cc2cn(Cc3ccon3)c3ccc(Cl)cc23)n1`, for which the figures for the IC50 in assay [2] and in assay [3] were over 25 µM and 10.3 µM, respectively.
Consider `CC1(C)CCc2sc(NC(=O)c3cc4c(s3)CCCC4)nc21`, for which the IC50 is 0.4 µM in assay [1] and over 80 µM in assay [2].
For `CC(C)(C)c1csc(NC(=O)Cc2cn(Cc3ccccc3)c3ccncc23)n1`, the IC50 in assay [2] was over 25 µM; in assay [3], 8.6 µM; in assay [4], over 25 µM.
`CCC1CCc2sc(C(=O)Nc3nc(C(C)(C)C)cs3)cc2C1` (stereo not drawn): the concentration for half-maximal inhibition (IC50) in assay [1] was 7.9 µM; in assay [2] it was over 80 µM.
`CC(C)(C)c1csc(NC(=O)Cc2cn(Cc3ccccc3)c3ncccc23)n1`: the IC50 is over 25 µM in assay [2], 12.2 µM in assay [3] and over 25 µM in assay [4].
For `CC(=O)N1CCc2sc(C(=O)Nc3nc(C(C)(C)C)cs3)cc2C1`, the IC50 in assay [1] and in assay [2] was over 50 µM in each case.
As to `CC(C)(C)c1csc(NC(=O)c2cc3ccccc3n2Cc2ccccc2)n1`, the IC50 was 8.29 µM in assay [3] and over 25 µM in assay [4].
As to `CC(C)(C)c1csc(NC(=O)Cc2cn(Cc3ccc(F)cc3Cl)c3ccc(Cl)cc23)n1`, the IC50 in assay [2] is over 25 µM; in assay [3], 1.15 µM; in assay [4] it was over 25 µM.
For `O=C(Nc1nc(C2CC2)cs1)c1cc2c(s1)CCCC2`, the IC50 in assay [1] is 11 µM; in assay [2], over 80 µM.
Take `CC(C)(C)c1csc(NC(=O)c2ccc(-c3ccccc3)s2)n1`: the IC50 in assay [1] was found to be 1.3 µM; in assay [2], 4.5 µM.
Regarding `Cc1cc(C(=O)Nc2nc(C(C)(C)C)cs2)cn1Cc1ccccc1`, the IC50 is over 25 µM in assay [2], 4.74 µM in assay [3] and over 25 µM in assay [4].
`CC(C)(C)c1csc(NC(=O)c2cc3c(s2)CCC3)n1`: the IC50 in assay [1] turned out to be 1 µM; in assay [2] it was 18 µM.
Consider `CC(C)OC(C)(C)c1csc(NC(=O)Cc2cn(Cc3ccccc3Cl)c3ccc(Cl)cc23)n1`, for which the IC50 was 14.8 µM in assay [2], 0.715 µM in assay [3] and over 25 µM in assay [4].
Take `CC(C(=O)Nc1nc(C(C)(C)C)cs1)c1cn(Cc2ccccc2)c2ccc(Cl)cc12` (stereo not drawn): the IC50 is over 25 µM in assay [2], 6.06 µM in assay [3] and over 25 µM in assay [4].
For `Cc1cc(Cn2cc(CC(=O)Nc3nc(C(C)(C)C)cs3)c3cc(Cl)ccc32)ccn1`, the IC50 was over 25 µM in assay [2], 6.1 µM in assay [3] and 24 µM in assay [4].
On to `Cc1cnccc1Cn1cc(CC(=O)Nc2nc(C(C)(C)C)cs2)c2cc(Cl)ccc21`, for which the IC50 in assay [2] was 19.1 µM; in assay [3], 2.68 µM; in assay [4], over 25 µM.
Consider `COC(C)(C)c1csc(NC(=O)Cc2cn(Cc3ccccc3Cl)c3ccc(Cl)cc23)n1`, for which the IC50 in assay [2] was 13.6 µM; in assay [3], 1.04 µM; in assay [4], over 25 µM.
In the case of `CC(C)(C)c1csc(NC(=O)c2cc3ccc(Br)cc3s2)n1`, the figures for the IC50 in assay [1] and in assay [2] were 3.3 µM and over 80 µM, respectively.
The corresponding values for `CC(C)(C)c1csc(NC(=O)c2ccc(Br)s2)n1` are 23 µM and over 80 µM.
Turning to `CC(C)(C)c1csc(NC(=O)Cc2cn(Cc3ccc(C(N)=O)cc3)c3ccc(Cl)cc23)n1`, the IC50 in assay [2] is over 25 µM; in assay [3] it was 8.84 µM; in assay [4], over 25 µM.
Take `CC(C)(C)OC(=O)N1CCc2sc(C(=O)Nc3nc(C(C)(C)C)cs3)cc2C1`: the IC50 in assay [1] is 20 µM; in assay [2], over 50 µM.
The corresponding values for `Cc1cc(C(=O)Nc2nc(C(C)(C)C)cs2)sc1-c1ccccc1` are 4.5 µM and 31 µM.
As for `CCC(C)(C)c1csc(NC(=O)Cc2cn(Cc3ccccc3Cl)c3ccc(Cl)cc23)n1`, the IC50 in assay [2] was over 24.2 µM; in assay [3], 0.727 µM; in assay [4] it was over 25 µM.
Consider `CC(C)(C)c1nsc(NC(=O)c2cc3c(s2)CCCC3)n1`, for which the IC50 in assay [1] was found to be 0.43 µM; in assay [2], 4.7 µM.
Regarding `CC(C)(C)c1csc(NC(=O)Cc2cn(Cc3ncccn3)c3ccc(Cl)cc23)n1`, the IC50 was over 25 µM in assay [2], 23.3 µM in assay [3] and over 25 µM in assay [4].
In the case of `CC(C)(C)c1csc(NC(=O)Cc2cn(C3CCc4ccccc43)c3ccc(Cl)cc23)n1` (stereo not drawn), the IC50 in assay [2] was over 25 µM; in assay [3] it was 6.62 µM; in assay [4], over 25 µM.
Regarding `CC(c1ccccc1Cl)n1cc(CC(=O)Nc2nc(C(C)(C)C)cs2)c2cc(Cl)ccc21` (stereo not drawn), the IC50 is over 25 µM in assay [2], 1.55 µM in assay [3] and over 25 µM in assay [4].
For the molecule `CC(C)(C)c1csc(NC(=O)Cc2cn(Cc3cocn3)c3ccc(Cl)cc23)n1`, the IC50 in assay [2] is over 25 µM; in assay [3] it was 22 µM.
Take `CC(C)(C)c1csc(NC(=O)Cc2cn(Cc3ccc(C#N)cc3)c3ccc(Cl)cc23)n1`: the IC50 was 23.8 µM in assay [2], 4.14 µM in assay [3] and over 25 µM in assay [4].
Regarding `CC(C)(C)Cc1csc(NC(=O)Cc2csc3ccc(Cl)cc23)n1`, the IC50 in assay [1] was 2480 µM; in assay [3], 6.99 µM; in assay [5], over 25 µM; in assay [4] it was over 25 µM.
Regarding `CC(C)(C)c1csc(NC(=O)c2cc3c([nH]2)CCCC3)n1`, the IC50 in assay [1] is 2.5 µM; in assay [2], over 80 µM.
For the molecule `C[C@H](c1ccccc1Cl)n1cc(CC(=O)Nc2nc(C(C)(C)C)cs2)c2cc(Cl)ccc21`, the 50% inhibitory concentration (IC50) in assay [2] was over 25 µM; in assay [3], 4.16 µM; in assay [4] it was over 25 µM.
Take `COC(=O)c1sc(NC(=O)c2cc3c(s2)CCCC3)nc1C(C)(C)C`: the figures for the half-inhibitory concentration (IC50) in assay [1] and in assay [2] were 3.9 µM and over 80 µM, respectively.
On the same counts, the results for `CC(C)(C)c1csc(NC(=O)c2cc(Br)cs2)n1` are 14 µM and 72 µM.
With `CC(c1ccccc1)n1cc(CC(=O)Nc2nc(C(C)(C)C)cs2)c2cc(Cl)ccc21` (stereo not drawn), the IC50 in assay [1] was 0.217 µM; in assay [3] it was 2.66 µM; in assay [5], over 25 µM; in assay [4] it was over 25 µM.
`CC(C)(C)c1csc(NC(=O)Cc2cn(Cc3c(F)cccc3Cl)c3ccc(Cl)cc23)n1`: the IC50 is over 25 µM in assay [2], 6.33 µM in assay [3] and over 25 µM in assay [4].
On to `Cc1c(CC(=O)Nc2nc(C(C)(C)C)cs2)c2ccccc2n1Cc1ccccc1Cl`, for which the IC50 in assay [2] was over 21.3 µM; in assay [3], 1.88 µM; in assay [4], over 25 µM.
Turning to `CC(C)(C)c1csc(NC(=O)c2cc3c(s2)CCCCC3)n1`, the IC50 in assay [1] is 0.58 µM; in assay [2] it was 4.3 µM.
With `CC(C)(C)c1csc(NC(=O)Cc2cn(Cc3ccccc3)c3nc(Cl)ccc23)n1`, the results for the IC50 in assay [2], in assay [3] and in assay [4] were over 25 µM, 10 µM and over 25 µM, respectively.
